# Test results reported in patent US9440969B2, “Compounds and methods for kinase modulation, and indications therefor” (PLEXXIKON INC., priority 2009, dated 2016).
# How the values were obtained:
# [1] = target: B-Raf (Homo sapiens, UniProt P15056); assay: B-Raf kinase activity assay (AlphaScreen, biotin-MEK1 substrate); conditions: 100 μM ATP, 100 nM biotin-MEK1, 45 minutes at room temperature; read-out: Biochemical activity (IC50 μM) B-Raf
# In short: (§1)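 Each Raf enzyme (0.1 ng) phosphorylates 100 nM biotin-MEK1 in pH 7.0 HEPES with Mg2+/Mn2+, 100 μM ATP final, 45 min at room temperature. Phospho-MEK1/2 antibody with AlphaScreen beads is read after 3 h. IC50 comes from an 8-point dilution series.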
# [2] = target: B-Raf V600E (Homo sapiens, UniProt P15056, V600E); assay: B-Raf V600E kinase activity assay (AlphaScreen, biotin-MEK1 substrate); conditions: 100 μM ATP, 100 nM biotin-MEK1, 45 minutes at room temperature, read-out: Biochemical activity (IC50 μM) V600E
# Sequence of B-Raf V600E (P15056 whole entry V600E): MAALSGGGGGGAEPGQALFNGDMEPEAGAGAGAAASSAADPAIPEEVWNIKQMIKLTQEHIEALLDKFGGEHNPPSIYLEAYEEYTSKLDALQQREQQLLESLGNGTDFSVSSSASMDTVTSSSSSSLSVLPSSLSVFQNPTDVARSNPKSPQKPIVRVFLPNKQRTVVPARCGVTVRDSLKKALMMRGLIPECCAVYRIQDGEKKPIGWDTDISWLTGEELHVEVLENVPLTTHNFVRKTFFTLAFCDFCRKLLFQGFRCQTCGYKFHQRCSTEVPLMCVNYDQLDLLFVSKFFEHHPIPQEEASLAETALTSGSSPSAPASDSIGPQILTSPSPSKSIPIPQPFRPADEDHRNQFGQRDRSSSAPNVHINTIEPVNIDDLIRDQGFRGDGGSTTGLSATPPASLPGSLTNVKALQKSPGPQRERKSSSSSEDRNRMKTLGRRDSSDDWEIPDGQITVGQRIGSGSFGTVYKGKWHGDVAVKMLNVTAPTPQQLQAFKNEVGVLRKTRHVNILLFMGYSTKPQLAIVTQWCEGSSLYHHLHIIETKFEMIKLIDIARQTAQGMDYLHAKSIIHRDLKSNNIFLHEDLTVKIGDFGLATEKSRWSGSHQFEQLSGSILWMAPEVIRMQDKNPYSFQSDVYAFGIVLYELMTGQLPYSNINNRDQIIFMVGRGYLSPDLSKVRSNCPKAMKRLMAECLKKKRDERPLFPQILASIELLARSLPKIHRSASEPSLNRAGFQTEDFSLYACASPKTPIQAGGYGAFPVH
# In short: as §1
# [3] = target: c-Raf-1 (Homo sapiens, UniProt P04049); assay: c-Raf-1 kinase activity assay (AlphaScreen, biotin-MEK1 substrate); conditions: 100 μM ATP, 100 nM biotin-MEK1, 45 minutes at room temperature; read-out: Biochemical activity (IC50 μM) c-Raf-1
# Sequence of c-Raf-1 (P04049 whole entry Y340D/Y341D, form open): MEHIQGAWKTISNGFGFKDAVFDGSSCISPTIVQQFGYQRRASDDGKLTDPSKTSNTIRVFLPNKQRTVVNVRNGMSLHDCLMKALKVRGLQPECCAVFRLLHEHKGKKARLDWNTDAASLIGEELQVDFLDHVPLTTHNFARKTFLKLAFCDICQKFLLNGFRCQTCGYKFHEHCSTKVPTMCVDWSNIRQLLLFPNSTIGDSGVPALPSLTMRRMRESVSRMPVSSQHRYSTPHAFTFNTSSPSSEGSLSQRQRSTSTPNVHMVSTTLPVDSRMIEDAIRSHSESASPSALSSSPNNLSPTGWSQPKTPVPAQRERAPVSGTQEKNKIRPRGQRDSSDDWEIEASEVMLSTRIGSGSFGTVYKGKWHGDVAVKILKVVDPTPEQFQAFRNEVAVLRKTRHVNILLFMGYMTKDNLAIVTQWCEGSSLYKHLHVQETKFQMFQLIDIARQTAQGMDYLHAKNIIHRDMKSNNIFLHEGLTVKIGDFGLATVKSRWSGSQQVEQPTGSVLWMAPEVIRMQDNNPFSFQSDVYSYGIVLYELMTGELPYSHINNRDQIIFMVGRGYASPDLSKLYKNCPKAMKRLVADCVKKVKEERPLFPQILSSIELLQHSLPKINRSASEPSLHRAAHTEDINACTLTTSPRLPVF
# In short: as §1
# [4] = tested on: COLO205 colon adenocarcinoma (B-Raf V600E mutation); assay: COLO205 cell growth inhibition (ATPlite luminescence); assay type: cell-based; conditions: Homo sapiens, COLO 205, 72 h, COLO205 cells, incubated 3 days with compound
# Procedure: Compounds are assessed in a variety of cell based assays. For example human cell lines with B-Raf V600E mutation (A375 melanoma, SKMEL3 melanoma, and COLO205 colon adenocarcinoma), as well as tumorigenic cell lines with wild-type B-RAF (SW620 colon adenocarcinoma) or with Ras mutations (SKMEL2 melanoma and IPC298 melanoma). Similar assays may be used to assess additional tumorigenic cell lines with Ras mutations, including, but not limited to, M202, M207, M243, M244, M296, S117, HCT116, HCT15, DLD1, MiaPaCa, A549, NCI-H23, NCI-H460, HOP62, MDA-MB231, Hs-578T, HL60, MOLT-4, and CCRF-CEM.
# On day 1, cells are counted, then centrifuged in a conical tube for 5 minutes at 1000 rpm. The supernatant is removed and cells are re-suspended as follows: • SW620 (ATCC catalog #CCL-27): resuspend in Leibovitz's L-15 medium, 2 mM L-glutamine, 10% fetal bovine serum to 6×10^4 cells/mL. • A375 (ATCC catalog #CRL-1619): resuspend in Dulbecco's modified Eagle's medium, 4 mM L-glutamine, 4.5 g/L D-glucose, 10% fetal bovine serum to 6×10^4 cells/mL. • COLO205 (ATCC catalog #CCL-222): resuspend in RPMI 1640, 2 mM L-glutamine, 1.5 g/L sodium bicarbonate, 4.5 g/L D-glucose, 10 mM HEPES, 1.0 mM sodium pyruvate, 10% fetal bovine serum to 6×10^4 cells/mL. • SKMEL2 (ATCC catalog #HTB-68): resuspend in Minimum Eagle essential medium, 2 mM L-glutamine, 1.5 g/L sodium bicarbonate, 0.1 mM non-essential amino acids, 1.0 mM sodium pyruvate, 10% fetal bovine serum to 6×10^4 cells/mL. • SKMEL3 (ATCC catalog #HTB-69): resuspend in McCoy's 5A medium, 1.5 mM L-glutamine, 15% fetal bovine serum to 6×10^4 cells/mL. • IPC298 (DSMZ catalog #ACC 251): resuspend in RPMI 1640, 2 mM L-glutamine, 10% fetal bovine serum to 6×10^4 cells/mL.
# The cells are plated, 50 μL in each well of a 96-well dish (Corning 3610) and incubated at 37° C. in 5% CO2 overnight, cells plated to a final concentration of cells as follows:
# On day 2, compound at a maximum concentration of 5 mM is serially diluted 1:3 (e.g. 10 μL with 30 μL dimethyl sulfoxide) for a total of 8 point titration with DMSO as a control. A 1 μL aliquot of each dilution point and control is added to 249 μL growth media and 50 μL is added to a well containing cells, providing 10 μM compound at the maximum concentration point. The cells are incubated for 3 days at 37° C. in 5% CO2.
# On day 5, ATPlite 1 step Luminescence Assay System (Perkin Elmer #6016739) is brought to room temperature along with the cell cultures. ATPlite is added 25 μL to each well, shake for 2 minutes, and the cells are incubated at room temperature for 10 minutes, then luminescence is read on Safire reader. The measured luminescence correlates directly with cell number, such that the reading as a function of compound concentration is used to determine the IC50 value.
# It is understood that the results of these assays may vary as assay conditions are varied. Inhibition levels determined under the conditions described herein represent a relative activity for the compounds tested under the specific conditions employed. The cell based assays are likely to show variability due to the complexity of the system and the sensitivity thereof to any changes in the assay conditions. […] Results for compounds that are tested and show substantially no inhibition below the highest tested concentration are represented as “-” in the tables below. In some instances, the compounds were not tested in all of the assays, or assay results were not valid, as indicated by NA in the tables below.
# [5] = Relative solubility by turbidity in aqueous buffers (pH 1.5, 4.5, 6.8, 7.4); assay type: physicochemical; conditions: for turbidity threshold (L, M, H) 1.4: pH 1.5 buffer (SGF); for turbidity threshold (L, M, H) 4.5: pH 4.5 buffer (SIF); for turbidity threshold (L, M, H) 6.8: pH 6.8 buffer (SIF); for turbidity threshold (L, M, H) 7.4: pH 7.4 buffer (HEPES)
# Procedure: As an indication of relative solubility, the turbidity of compounds in aqueous solutions is assessed. To assess possible compound properties in different physiological compartments, such as stomach, intestine, and blood, a series of aqueous buffers with varying pH is used. Thus each compound is diluted into four different physiologically relevant buffers and solution turbidity is measured by spectrophotometry.
# Compounds are dissolved at a concentration of 25 mM in dimethyl sulfoxide, then serially diluted 1:1 into a 96 well plate, diluting 10 times in pure dimethyl sulfoxide, with the final well of each row a dimethyl sulfoxide blank. In an assay plate, 99 μL of appropriate buffer is added to each well, and 1 μL of each sample dilution is added to the buffer, achieving a range of final total concentrations in aqueous solutions having different pH. The buffers used are Simulated Gastric Fluid (SGF-pH 1.5) 0.5M NaCl, pH 1.5; Simulated Intestinal fluid (SIF-pH 4.5 and pH 6.8) 0.05M NaH2PO4, pH 4.5 and 6.8; and Hepes Buffer (HEPES-pH 7.4) 10 mM HEPES, 150 mM NaCl, pH 7.4. Control compounds pyrene, estriol and propranolol HCl are also assessed. Plates are spun and then mixed for 1 minute, and the absorbance is read using a Tecan Safire II to read wavelengths in the visible range (490, 535, and 650 nm) at four locations per well, reflecting the degree of turbidity present. The average optical density for each wavelength in each well is graphed vs. compound concentration, and the concentration at which the curve crosses a threshold O.D. of 0.01 for each wavelength is reported as the endpoint turbidity assay result. The average of the three wavelengths is used to compare turbidity of compounds. Compounds are considered to have low solubility if the threshold concentration is <31.3 μM, moderate solubility if the threshold concentration is 31.3 μM to 250 μM, and high solubility if the threshold concentration is >250 μM.
# The following table indicates the relative solubility (L=low, M=moderate, H=high) based on turbidity threshold concentration at each pH for exemplary compounds according to the invention: […]
# Sequence of B-Raf (P15056 whole entry): as the sequence (P15056 whole entry V600E) above, with E600V counted along it
Structure (SMILES),IC50 [1],IC50 [2],IC50 [3],IC50 [4],"turbidity threshold (L, M, H) 1.4 [5]","turbidity threshold (L, M, H) 4.5 [5]","turbidity threshold (L, M, H) 6.8 [5]","turbidity threshold (L, M, H) 7.4 [5]"
"CCCS(=O)(=O)Nc1ccc(F)c(C(=O)c2c[nH]c3ncc(-c4cccc5[nH]ncc45)cc23)c1F [P-0009, Propane-1-sulfonic acid {2,4-difluoro-3-[5-(1H-indazol-4-yl)-1H-pyrrolo[2,3-b]pyridine-3-carbonyl]-phenyl}-amide]",< 1 µM,< 1 µM,< 1 µM,< 1 µM,,,,
"CCCS(=O)(=O)Nc1ccc(F)c(C(=O)c2c[nH]c3ncc(-c4cn5ccccc5n4)cc23)c1F [P-0021, Propane-1-sulfonic acid [2,4-difluoro-3-(5-imidazo[1,2-a]pyridin-2-yl-1H-pyrrolo[2,3-b]pyridine-3-carbonyl)-phenyl]-amide]",< 0.1 µM,< 0.1 µM,< 0.1 µM,< 1 µM,,,,
"CCCS(=O)(=O)Nc1ccc(F)c(C(=O)c2c[nH]c3ncc(-c4cn5ccc(C(F)(F)F)nc5n4)cc23)c1F [P-0022, Propane-1-sulfonic acid {2,4-difluoro-3-[5-(7-trifluoromethyl-imidazo[1,2-a]pyrimidin-2-yl)-1H-pyrrolo[2,3-b]pyridine-3-carbonyl]-phenyl}-amide]",< 0.1 µM,< 0.1 µM,< 0.1 µM,> 1 µM,,,,
"CCCS(=O)(=O)Nc1ccc(F)c(C(=O)c2c[nH]c3ncc(-c4ccc5[nH]nc(C)c5c4)cc23)c1F [P-0024, Propane-1-sulfonic acid {2,4-difluoro-3-[5-(3-methyl-1H-indazol-5-yl)-1H-pyrrolo[2,3-b]pyridine-3-carbonyl]-phenyl}-amide]",< 0.1 µM,< 0.1 µM,< 0.1 µM,< 1 µM,,,,
"CN(C)c1ncc(-c2cnc3[nH]cc(C(=O)c4c(F)ccc(NS(=O)(=O)c5cc(F)ccc5F)c4F)c3c2)cn1 [P-1502, N-{3-[5-(2-Dimethylamino-pyrimidin-5-yl)-1H-pyrrolo[2,3-b]pyridine-3-carbonyl]-2,4-difluoro-phenyl}-2,5-difluoro-benzenesulfonamide]",< 0.1 µM,< 0.1 µM,< 0.1 µM,,L (low solubility if the threshold concentration is <31.3 μM),L (low solubility if the threshold concentration is <31.3 μM),L (low solubility if the threshold concentration is <31.3 μM),L (low solubility if the threshold concentration is <31.3 μM)
"CONC(=O)c1cccc(-c2cnc3[nH]cc(C(=O)c4c(F)ccc(NS(=O)(=O)c5cc(F)ccc5F)c4F)c3c2)c1 [P-1704, 3-{3-[3-(2,5-Difluoro-benzenesulfonylamino)-2,6-difluoro-benzoyl]-1H-pyrrolo[2,3-b]pyridin-5-yl}-N-methoxy-benzamide]",< 0.1 µM,< 0.1 µM,< 0.1 µM,,L (low solubility if the threshold concentration is <31.3 μM),L (low solubility if the threshold concentration is <31.3 μM),L (low solubility if the threshold concentration is <31.3 μM),L (low solubility if the threshold concentration is <31.3 μM)
"CONC(=O)c1ccc(-c2cnc3[nH]cc(C(=O)c4c(F)ccc(NS(=O)(=O)c5cc(F)ccc5F)c4F)c3c2)cc1 [P-1705, 4-{3-[3-(2,5-Difluoro-benzenesulfonylamino)-2,6-difluoro-benzoyl]-1H-pyrrolo[2,3-b]pyridin-5-yl}-N-methoxy-benzamide]",< 0.1 µM,< 0.1 µM,< 0.1 µM,,M (moderate solubility if the threshold concentration is 31.3 μM to 250 μM),L (low solubility if the threshold concentration is <31.3 μM),L (low solubility if the threshold concentration is <31.3 μM),L (low solubility if the threshold concentration is <31.3 μM)

# Further lines, with some results ahead:
IC50 [1],IC50 [2],IC50 [3],IC50 [4],Structure (SMILES),"turbidity threshold (L, M, H) 1.4 [5]","turbidity threshold (L, M, H) 4.5 [5]","turbidity threshold (L, M, H) 6.8 [5]","turbidity threshold (L, M, H) 7.4 [5]"
< 0.1 µM,< 0.1 µM,< 0.1 µM,< 1 µM,"CCCS(=O)(=O)Nc1ccc(F)c(C(=O)c2c[nH]c3ncc(-c4ccc5scnc5c4)cc23)c1F [P-0013, Propane-1-sulfonic acid [3-(5-benzothiazol-5-yl-1H-pyrrolo[2,3-b]pyridine-3-carbonyl)-2,4-difluoro-phenyl]-amide]",,,,
< 0.1 µM,< 0.1 µM,< 0.1 µM,< 1 µM,"CCCS(=O)(=O)Nc1ccc(F)c(C(=O)c2c[nH]c3ncc(-c4ccc5nccnc5c4)cc23)c1F [P-0014, Propane-1-sulfonic acid [2,4-difluoro-3-(5-quinoxalin-6-yl-1H-pyrrolo[2,3-b]pyridine-3-carbonyl)-phenyl]-amide]",,,,
< 0.1 µM,< 0.1 µM,< 0.1 µM,> 1 µM,"CCCS(=O)(=O)Nc1ccc(F)c(C(=O)c2c[nH]c3ncc(-c4cccc5[nH]ccc45)cc23)c1F [P-0019, Propane-1-sulfonic acid {2,4-difluoro-3-[5-(1H-indol-4-yl)-1H-pyrrolo[2,3-b]pyridine-3-carbonyl]-phenyl}-amide]",,,,
